Results on 2 molecules are retold here after patent US12661404B2, “Methods and materials for tissue ablation” (Mayo Foundation for Medical Education and Research, priority 2020, dated 2026).

The test system of one data set is rat liver. To be noted: solubilized with ICG in 25%-LATTE, injected into rat liver.
For data set [1], the system named is human hepatocellular carcinoma (Hep-G2) cells. The data set is described as follows: cells. To be noted: HepG2, 24 h, read-out: EC50, fractional viability.
Protocol: HepG2 human liver cancer cell line (ATCC CRL10741; American Type Culture Collection, Manassas, VA, USA) were cultured in 75 cm^2 flasks using growth medium consisting of low glucose Dulbecco's Modified Eagle Medium (DMEM, ThermoFisher) and 10% heat-inactivated bovine serum that was supplemented with 100 IU penicillin and 10 μg/mL streptomycin (Thermo Fisher Scientific). […] The anticancer activity of LATTE on HepG2 was determined using WST-1 reagent (2-(4-Iodophenyl)-3-(4-nitrophenyl)-5-(2,4-disulfophenyl)-2H-tetrazolium sodium) assay as an indication of viability/cytotoxicity treatment. WST-1 viability assay is based on the reduction of tetrazolium salt, WST-1 to an insoluble formazan dye by electron transport across the plasma membrane in viable cells that alter the optical density of the media. […] Cell viability was calculated relative to control wells that received the growth medium alone.
All reported values are the means of three replicate experiments with each study having 8 wells per dose level. Plots of the log concentration versus fractional viability for each drug were generated for each study.
The subject of another data set is renal artery. More on the design: species or system swine. The note with it: in vivo. Here is the method:
Healthy Yorkshire pigs (S&S Farms, Brentwood, CA) weighing 48 to 55 kg were acclimatized for at least 4 days under standard feeding conditions and suitable temperature. Pigs were anesthetized using intramuscular injection of 5 mg kg^−1 tiletamine-zolazepam (Telazol, Zoetis), […] xylazine, and 0.02 mg kg^−1 glycopyrrolate. Pigs were then placed in a supine position and intubated on an X-ray compatible operating table (Pannomed Aeron, DRE, KY). Following intubation, anesthesia was maintained with inhalation of 1.5-3% isoflurane. During the procedure, electrocardiogram, transcutaneous oxyhemoglobin saturation (SpO2), end-tidal CO2 concentration, inspired oxygen fraction, and core temperature were monitored. Percutaneous access to the carotid artery was obtained using ultrasound guidance (ACUSON 52000, Siemens) and fluoroscopy (OEC Elite C-Arm, GE Healthcare Systems, Chicago, IL). Access needle and wire were exchanged for a 5 French catheter (Cook Medical). Over a GT-glidewire (Terumo Medical), the tip of the catheter was advanced to the renal using contrast-enhanced fluoroscopy (350 mgI mL-1 Omnipaque, GE HealthCare, MA). […] The radiopacity of NanoGel or NS hydrogel and vessel patency were assessed using digital subtraction angiography. […] At necropsy, the embolized kidneys were explanted for fluorescence imaging and histology.

Protocol for rat liver: Time-dependent evaluation of chemotherapy drug diffusion and retention following LATTE injection in rat liver. […] Post necropsy, near-infrared fluorescent scans (NIRF) showing ICG retention at the two injection sites. […] Fluorescent scans visualizing Doxorubicin at the medial location of the same liver.
Intrahepatic injections or LATTE mixtures were performed in Sprague Dawley rats via laparotomy. Anesthetized rats were placed in a supine position on a warming platform. The abdominal hair was removed with an electric shaver and scrubbed to disinfect the skin with triple applications of povidone-iodine alternating with 70% alcohol. […]
To assess differences in ICG or doxorubicin spreading and retention following intrahepatic injections, ex vivo spectral fluorescence imaging was performed on fixed liver tissues using the IVIS 200 system (PerkinElmer, Inc. USA). […] Cross-sectional images were acquired following near-infrared illumination at the excitation wavelength of 750 nm, while fluorescent emission was acquired at 850 nm to visualize indocyanine green (ICG); Doxorubicin was detected at an excitation wavelength of 460 nm and an emission wavelength of 560 nm. […] Fluorescent intensity was quantified in the region of interest (ROI) of each tissue. […]

As usually defined, the EC50 is the midpoint of the concentration-response curve. In the case of `COc1cccc2c1C(=O)c1c(O)c3c(c(O)c1C2=O)C[C@@](O)(C(=O)CO)C[C@@H]3O[C@H]1C[C@H](N)[C@H](O)[C@H](C)O1` [Doxorubicin], in the data set with rat liver, the “doxorubicin retention throughout the affected zone” value is on record as “up to 28 days”. In data set [1], the concentration giving a half-maximal response (EC50) was determined as 1.63 µM.
On to “Nivo: immunotherapy agent Nivolumab (an anti PD-1 antibody)”, for which, in the data set with renal artery, the “nivolumab localization (immunohistochemistry)” value is “localized inside the renal artery and in the surrounding area”.
